In patent US9550763B2, “Heterocyclic ring and carbocyclic derivative” (Shionogi & Co., Ltd., priority 2012, dated 2017) one finds IC50 data, which are given here for 47 molecules.

In general, pIC50 refers to −log10 of the IC50, conventionally taken in molar units.

The structures appear in SMILES notation. pIC50: −log10 of the molar value. Like-named read-outs stand apart in the source and are kept apart here.

The assay deals with human P2X3 receptor (Homo sapiens (Human), UniProt P56373). Kind of assay: Evaluation of human P2X3 receptor inhibitory activity (Test Example 1-2, FLIPR 384, 384-well, 150 nM ATP). The assay is classed as cell-based. The method, boiled down: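 Human P2X3 stably expressed in C6BU-1 cells, Fluo-3-AM loaded, read on FLIPR at pH 7.5 HEPES buffer. Compound added 5 min before 150 nM ATP; peak/baseline fluorescence over 4 min gave inhibition (buffer instead of ATP = 100%), from which IC50 was derived.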

[1] abbreviates: human P2X3 receptor in C6BU-1 cells, Test Example 1-2 (compounds I-301 to I-483), read-out: P2X3 IC50.
[2] abbreviates: C6BU-1 cell transfected with human P2X3 receptor gene, method of Test Example 1-2 (compounds I-301 to I-483), read-out: IC50 (human P2X3 receptor inhibitory activity).

Sequence of human P2X3 receptor (P56373 whole entry): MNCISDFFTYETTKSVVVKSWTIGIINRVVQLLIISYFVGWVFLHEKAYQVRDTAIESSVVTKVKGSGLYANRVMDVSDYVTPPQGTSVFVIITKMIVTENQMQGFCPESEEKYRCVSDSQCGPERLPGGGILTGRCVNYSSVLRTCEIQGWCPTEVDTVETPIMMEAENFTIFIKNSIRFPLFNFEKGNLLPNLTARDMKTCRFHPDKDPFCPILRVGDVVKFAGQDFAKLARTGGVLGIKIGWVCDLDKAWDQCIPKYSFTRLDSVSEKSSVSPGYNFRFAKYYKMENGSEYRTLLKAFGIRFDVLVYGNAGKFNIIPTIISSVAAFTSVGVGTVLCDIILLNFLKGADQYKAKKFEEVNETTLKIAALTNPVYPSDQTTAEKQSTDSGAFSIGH

In the case of `NC(=O)CNC(=O)c1cn(Cc2ccc(Cl)cc2)c(Nc2ccc(Oc3cccc(F)n3)cc2)nc1=O` [Compound I-431], the pIC50 under setting [1] is 7.36.
Consider `CCC(=O)Nc1c[nH]/c(=N\c2ccc(Oc3cc(C)c(Cl)nn3)cc2)n(Cc2ccc(Cl)cc2)c1=O` [Compound I-432], for which the pIC50 under setting [1] was 7.92.
Turning to `CCC(=O)Nc1c[nH]/c(=N\c2ccc(Oc3cc(C)cnn3)cc2)n(Cc2ccc(Cl)cc2)c1=O` [Compound I-433], the negative logarithm of the IC50 (pIC50) under setting [1] is 7.00.
As for `CCCc1c[nH]/c(=N\c2ccc(Oc3cccc(C#N)n3)cc2)n(Cc2ccc(Cl)cc2)c1=O` [Compound I-434], the pIC50 under setting [1] is 6.71.
Still for that read-out and setting: then `O=C(Nc1c[nH]/c(=N\c2ccc(Oc3ccc(C(F)(F)F)nn3)cc2)n(Cc2ccc(Cl)cc2)c1=O)C1CCOCC1` [Compound I-435], with 8.52; and `CCCc1c[nH]/c(=N\c2ccc(Oc3cccc(C(=O)O)n3)cc2)n(Cc2ccc(Cl)cc2)c1=O` [Compound I-436], with 7.89.
Take `CCOC(=O)c1noc(-c2c[nH]/c(=N\c3ccc(Oc4ccon4)cc3)n(Cc3ccc(Cl)cc3)c2=O)n1` [Compound I-437]: the pIC50 under setting [1] is 6.91.
Regarding `COC(=O)c1nnc(-c2c[nH]/c(=N\c3ccc(Oc4ccon4)cc3)n(Cc3ccc(Cl)cc3)c2=O)o1` [Compound I-438], the pIC50 under setting [1] is 6.96.
For `O=c1c(-c2nnco2)c[nH]/c(=N\c2ccc(Oc3ccon3)cc2)n1Cc1ccc(Cl)cc1` [Compound I-439], the pIC50 under setting [1] is 7.33.
In the case of `O=C(O)c1cccc(Oc2ccc(/N=c3\[nH]cc(Br)c(=O)n3Cc3ccc(Cl)cc3)cc2)n1` [Compound I-440], the negative logarithm of the IC50 (pIC50) under setting [1] was 7.82.
Regarding `NC(=O)c1noc(-c2c[nH]/c(=N\c3ccc(Oc4ccon4)cc3)n(Cc3ccc(Cl)cc3)c2=O)n1` [Compound I-441], the negative logarithm of the IC50 (pIC50) under setting [1] was 7.16.
`CNC(=O)c1noc(-c2c[nH]/c(=N\c3ccc(Oc4ccon4)cc3)n(Cc3ccc(Cl)cc3)c2=O)n1` [Compound I-442]: the pIC50 under setting [1] is 7.10.
Take `C[C@@H](NC(=O)c1cn(Cc2ccc(Cl)cc2)c(Nc2ccc(Oc3cccc(F)n3)cc2)nc1=O)C(N)=O` [Compound I-443]: the pIC50 under setting [1] was 7.44.
As to `COC(=O)C(C)(C)Cn1c(=O)cc(Nc2ccc(Oc3ccc(F)cn3)c(C)n2)n(C[C@H]2CC[C@H](C)CC2)c1=O` [Compound I-444], the pIC50 under setting [1] was 8.05.
As to `Cc1nc(Nc2cc(=O)n(CC(C)(C)C(=O)O)c(=O)n2C[C@H]2CC[C@H](C)CC2)ccc1Oc1ccc(F)cn1` [Compound I-445], the pIC50 under setting [1] was 8.15.
Regarding `COC(=O)[C@H](CO)NC(=O)c1c[nH]/c(=N\c2ccc(Oc3ccon3)cc2)n(Cc2ccc(Cl)cc2)c1=O` [Compound I-446], the pIC50 under setting [1] was 7.33.
Turning to `O=c1cc[nH]/c(=N\c2ccc(Oc3ccon3)cc2)n1Cc1ccc(Cl)cc1` [Compound I-447], under setting [2], the pIC50 was greater than 4.52.
`O=C(O)c1cccc(Oc2ccc(/N=c3\[nH]ccc(=O)n3Cc3ccc(Cl)cc3)cc2)n1` [Compound I-448]: the pIC50 under setting [2] is greater than 4.52.
In the case of `O=c1c(-c2ncno2)c[nH]/c(=N\c2ccc(Oc3ccon3)cc2)n1Cc1ccc(Cl)cc1` [Compound I-449], the pIC50 under setting [1] was 6.75.
`C=CCNC(=O)c1c[nH]/c(=N\c2ccc(Oc3ccon3)cc2)n(Cc2ccc(Cl)cc2)c1=O` [Compound I-450]: the pIC50 under setting [1] is 7.68.
Still for that read-out and setting: then `O=C(NCc1ccccc1)c1c[nH]/c(=N\c2ccc(Oc3ccon3)cc2)n(Cc2ccc(Cl)cc2)c1=O` [Compound I-451], with 6.98.
Regarding `O=C(NCC(F)(F)F)c1c[nH]/c(=N\c2ccc(Oc3ccon3)cc2)n(Cc2ccc(Cl)cc2)c1=O` [Compound I-452], the pIC50 under setting [1] is 7.01.
Same read-out and setting: then `O=C(O)c1coc(-c2c[nH]/c(=N\c3ccc(Oc4ccon4)cc3)n(Cc3ccc(Cl)cc3)c2=O)n1` [Compound I-454], with 6.80.
As for `O=C(O)c1cccc(Oc2ccc(Nc3nc4ccccc4n3Cc3ccc(Cl)cc3)cc2)n1` [Compound I-455], under setting [2], the pIC50 was greater than 4.52.
For `CCn1c(=O)[nH]c(Nc2ccc(Oc3cccc(C#N)n3)cc2)c(Cc2ccc(Cl)cc2)c1=O` [Compound I-456, 5-(4-chlorobenzyl)-6-[4-(6-cyano-2-pyridyloxy)phenylamino]-3-ethylpyrimidin-2,4(1H,3H)-dione], the negative-log IC50 (pIC50) under setting [1] is 8.05.
For the molecule `CCn1c(=O)[nH]c(Nc2ccc(Oc3cccc(C(=O)O)n3)cc2)c(Cc2ccc(Cl)cc2)c1=O` [Compound I-457], under setting [1], the negative logarithm of the IC50 (pIC50) is 8.05.
For `CCn1c(=O)[nH]c(Nc2ccc(Oc3cccc(C(N)=O)n3)cc2)c(Cc2ccc(Cl)cc2)c1=O` [Compound I-458], the negative logarithm of the IC50 (pIC50) under setting [1] was 7.82.
As to `O=C(O)c1cn(Cc2ccc(Cl)cc2)c2cc(Nc3ccc(Oc4ccc(F)cn4)cc3)ccc2c1=O` [Compound I-461], under setting [2], the pIC50 was greater than 4.52.
For `CCOC(=O)c1cn(Cc2ccc(Cl)cc2)c(Nc2ccc(Oc3ccc(F)cn3)cc2)cc1=O` [Compound I-463, 1-(4-chloro-benzyl)-2-[4-(5-fluoro-2-pyridyloxy)phenylamino]-5-(ethoxycarbonyl)pyridin-4(1H)-one], the pIC50 under setting [1] was 7.59.
For the molecule `CN(C)c1ccc(Nc2ccc(Oc3ccc(F)cn3)cc2)c(Cc2ccc(Cl)cc2)c1` [Compound I-464, 1-(4-chlorobenzyl)-3-dimethylamino-6-[4-(5-fluoro-2-pyridyloxy)phenylamino]benzene], the pIC50 under setting [2] was greater than 4.52.
For `COC(=O)c1cccc(Oc2ccc(Nc3ccn(C(C)C)c(=O)c3Cc3ccc(Cl)cc3)cc2)n1` [Compound I-465, 3-(4-chloro-benzyl)-1-isopropyl-4-[4-(6-methoxycarbonyl-2-pyridyloxy)phenylamino]pyridin-2(1H)-one], the pIC50 under setting [2] was greater than 4.52.
Consider `CC(C)n1ccc(Nc2ccc(Oc3cccc(C(=O)O)n3)cc2)c(Cc2ccc(Cl)cc2)c1=O` [Compound I-466], for which, under setting [1], the pIC50 is 6.22.
Turning to `CC(C)n1ccc(Nc2ccc(Oc3cccc(C(N)=O)n3)cc2)c(Cc2ccc(Cl)cc2)c1=O` [Compound I-467], the pIC50 under setting [2] was greater than 4.52.
Regarding `CC(C)(C)c1cc(Nc2ccc(Oc3cccc(C(N)=O)n3)cc2)n(Cc2ccc(Cl)cc2)n1` [Compound I-468, 3-t-butyl-1-(4-chlorobenzyl)-5-[4-(6-carbamoyl-2-pyridyloxy)phenylamino]pyrazole], the pIC50 under setting [2] is greater than 4.52.
Same read-out and setting: then `O=C(O)c1cccc(Oc2ccc(Nc3nc4ccccc4n3Cc3ccc(F)cc3)cc2)n1` [Compound I-470], with greater than 4.52.
With `COC(=O)c1cccc(Oc2ccc(/N=c3\[nH]cc(C(F)(F)F)c(=O)n3Cc3ccc(Cl)cc3)cc2)n1` [Compound I-471], the pIC50 under setting [1] was 6.17.
For `O=C(O)c1cccc(Oc2ccc(/N=c3\[nH]cc(C(F)(F)F)c(=O)n3Cc3ccc(Cl)cc3)cc2)n1` [Compound I-472], under setting [1], the negative logarithm of the IC50 (pIC50) was 7.82.
Consider `CCCn1c(=O)cc(Nc2ccc(Oc3cccc(C#N)c3)c(C)n2)n(Cc2ccc(C)cc2)c1=O` [Compound I-473], for which the pIC50 under setting [1] was 7.54.
Turning to `CCCn1c(=O)cc(Nc2ccc(Oc3cccc(C(=O)O)c3)c(C)n2)n(Cc2ccc(C)cc2)c1=O` [Compound I-474], the pIC50 under setting [1] was 8.30.
As for `COC(=O)c1cccc(Oc2ccc(/N=c3\[nH]cc(C4CCOCC4)c(=O)n3Cc3ccc(Cl)cc3)cc2)n1` [Compound I-476], the pIC50 under setting [1] was 7.18.
As for `CC(C)(C)c1c[nH]/c(=N\c2ccc(Oc3cccc(C(=O)O)n3)cc2)n(Cc2ccc(Cl)cc2)c1=O` [Compound I-477], the pIC50 under setting [1] was 8.30.
As to `O=C(O)c1cccc(Oc2ccc(/N=c3\[nH]cc(C4CCOCC4)c(=O)n3Cc3ccc(Cl)cc3)cc2)n1` [Compound I-478], the pIC50 under setting [1] is 8.30.
`CSc1ncc(Nc2ccc(Oc3ccc(F)cn3)cc2)c(Cc2ccc(F)cc2)n1` [Compound I-479]: the pIC50 under setting [2] was greater than 4.52.
With `O=C(O)c1cccc(Oc2ccc(/N=c3\[nH]cc(-c4ccccn4)c(=O)n3Cc3ccc(Cl)cc3)cc2)n1` [Compound I-480], the pIC50 under setting [1] was 8.15.
For the molecule `CN(C)c1ncc(Nc2ccc(Oc3ccc(F)cn3)cc2)c(Cc2ccc(F)cc2)n1` [Compound I-481, 2-dimethylamino-4-(4-fluorobenzyl)-5-[4-(5-fluoro-2-pyridyloxy)phenylamino]pyrimidine], the pIC50 under setting [2] is greater than 4.52.
In the case of `CC(C)(C)c1c[nH]/c(=N\c2ccc(Oc3cccc(C(N)=O)n3)cc2)n(Cc2ccc(Cl)cc2)c1=O` [Compound I-482], under setting [1], the negative logarithm of the IC50 (pIC50) was 6.60.
Same read-out and setting: to `NC(=O)c1cccc(Oc2ccc(/N=c3\[nH]cc(C4CCOCC4)c(=O)n3Cc3ccc(Cl)cc3)cc2)n1` [Compound I-483] belongs 7.77.
